Experimental data as given in the supplement of paper PMC10331698.
± gives the standard deviation of the averaged measurements.

What was measured:
Assay in all cases: level (log10 ratio to DMSO vehicle control); higher = higher biomarker level / cell amount than vehicle control
Settings in all cases: in DMSO
[1] = compound: O=C(O)C(F)(F)C(F)(F)C(F)F [4H-Perfluorobutanoic acid]
Experimental: (§1)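 BioMAP Diversity Plus panel of 12 human primary cell co-culture systems (3C, 4H, LPS, SAg, BT, BF4T, BE3C, CASM3C, HDF3CGF, KF3CT, MyoF, Mphg). Compounds were added 1 h before stimulation and left for 24 h (MyoF 48 h; BT 72 h for soluble read-outs or 6 d for IgG). Biomarkers were read by ELISA, cytotoxicity by SRB, PBMC viability and proliferation by Alamar Blue. Each well value was divided by the mean of 8 DMSO control wells on the same plate and log10 transformed; duplicate blinded samples were tested at 4 concentrations.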

[2] = compound: NCC(F)(F)C(F)(F)C(F)(F)C(F)(F)C(F)(F)C(F)(F)C(F)(F)F [1H,1H-Perfluorooctylamine]
Experimental: as §1

[3] = compound: FC(F)(F)C(F)(F)C(F)(F)C(F)(F)C(F)(F)CCI [1-Iodo-1H,1H,2H,2H-perfluoroheptane]
Experimental: as §1

[4] = compound: OCC(F)(F)OC(F)(F)C(F)(F)OC(F)(F)CO [1H,1H,8H,8H-Perfluoro-3,6-dioxaoctane-1,8-diol]
Experimental: as §1

[5] = compound: C=C(C)C(=O)OCCC(F)(F)C(F)(F)C(F)(F)C(F)(F)C(F)(C(F)(F)F)C(F)(F)F [(Perfluoro-5-methylhexyl)ethyl 2-methylprop-2-enoate]
Experimental: as §1

Perfluoropentanoic acid = compound: O=C(O)C(F)(F)C(F)(F)C(F)(F)C(F)(F)F [Perfluoropentanoic acid]
Experimental: as §1

Perfluoro-1-iodohexane = compound: FC(F)(F)C(F)(F)C(F)(F)C(F)(F)C(F)(F)C(F)(F)I [Perfluoro-1-iodohexane]
Experimental: as §1

Row | Test System | level (log10) ([1]; 6700 nM) | level (log10) ([1]; 20000 nM) | level (log10) ([1]; 60000 nM) | level (log10) ([2]; 6700 nM) | level (log10) ([2]; 20000 nM) | level (log10) ([2]; 60000 nM) | level (log10) ([3]; 6700 nM) | level (log10) ([3]; 20000 nM) | level (log10) ([3]; 60000 nM) | level (log10) ([4]; 6700 nM) | level (log10) ([4]; 20000 nM) | level (log10) ([4]; 60000 nM) | level (log10) ([5]; 6700 nM) | level (log10) ([5]; 20000 nM) | level (log10) (Perfluoropentanoic acid; 6700 nM) | level (log10) (Perfluoropentanoic acid; 20000 nM) | level (log10) (Perfluoropentanoic acid; 60000 nM) | level (log10) (Perfluoro-1-iodohexane; 6700 nM) | level (log10) (Perfluoro-1-iodohexane; 20000 nM) | level (log10) (Perfluoro-1-iodohexane; 60000 nM)
1 | BT:Secreted IgG | 0.0315 ± 0.036 | 0.0205 ± 0.03 | 0.014 ± 0.041 | 0.0485 ± 0.03 | 0.039 ± 0.034 | -0.0175 ± 0.04 | -0.006 ± 0.016 | -0.002 ± 0.062 | -0.0185 ± 0.08 | -0.0135 ± 0.06 | 0.0085 ± 0.04 | -0.054 ± 0.021 | -0.0085 ± 0.044 | -0.023 ± 0.0085 | -0.0065 ± 0.016 | 0.0145 ± 0.0035 | -0.009 ± 0.059 | 0.0195 ± 0.023 | -0.0165 ± 0.043 | -0.0315 ± 0.081
2 | LPS:CD141/Thrombomodulin | -0.009 | -0.012 ± 0.016 | -0.008 ± 0.013 | -0.0055 ± 0.025 | -0.0355 ± 0.021 | -0.026 ± 0.034 | -0.016 ± 0.0085 | -0.014 ± 0.0099 | -0.032 ± 0.0014 | 0.004 ± 0.021 | 0.021 ± 0.018 | -0.002 ± 0.014 | 0.0055 ± 0.0092 | -0.0345 ± 0.021 | -0.0115 ± 0.047 | -0.045 ± 0.073 | -0.0085 ± 0.11 | -0.0175 ± 0.0035 | -0.0095 ± 0.025 | -0.0105 ± 0.0092
3 | BE3C:CXCL10/IP-10 | -0.006 ± 0.021 | -0.001 ± 0.0099 | 0.017 ± 0.021 | 0.004 ± 0.0014 | -0.0025 ± 0.0035 | 0.002 ± 0.0085 | 0.018 ± 0.052 | 0.022 ± 0.033 | 0.004 ± 0.052 | 0.004 ± 0.02 | 0.01 ± 0.0071 | 0.0105 ± 0.016 | 0.032 ± 0.031 | 0.022 ± 0.021 | -0.0085 ± 0.016 | -0.013 ± 0.021 | 0.0005 ± 0.005 | 0.013 ± 0.018 | 0.0135 ± 0.0078 | 0.0355 ± 0.022
4 | BF4T:MMP-9 | -0.018 ± 0.028 | -0.0245 ± 0.036 | -0.008 ± 0.038 | 0.0005 ± 0.0064 | -0.0105 ± 0.015 | 0.002 ± 0.0028 | 0.01 ± 0.0014 | 0.03 ± 0.0014 | 0.065 ± 0.017 | -0.026 ± 0.047 | -0.0145 ± 0.025 | 0.01 ± 0.037 | -0.036 ± 0.05 | -0.007 ± 0.038 | -0.0115 ± 0.0064 | -0.0115 ± 0.019 | -0.0005 ± 0.035 | -0.0005 ± 0.015 | -0.011 ± 0.0042 | -0.021 ± 0.034
5 | BF4T:CD90 | 0.0045 ± 0.0035 | 0.0095 ± 0.011 | 0.01 ± 0.028 | 0.015 ± 0.021 | 0.009 ± 0.0014 | 0.0065 ± 0.012 | 0.0025 ± 0.00071 | -0.001 ± 0.0028 | 0.013 ± 0.0028 | -0.008 ± 0.027 | -0.008 ± 0.011 | -0.0015 ± 0.011 | 0.011 | 0 ± 0.0085 | -0.02 ± 0.0085 | -0.0105 ± 0.005 | -0.0025 ± 0.025 | -0.0085 ± 0.0035 | -0.002 ± 0.018 | -0.002 ± 0.011
